Laboratory results taken from US9951077B2, “Aminopyridazinone compounds as protein kinase inhibitors” (ETERNITY BIOSCIENCE INC., priority 2014, dated 2018).

Target: Btk (Homo sapiens (Human), UniProt Q06187)
Assay: Btk kinase assay (ADP-Glo)
Type: biochemical
Conditions: ATP 1.2 μM, 60 minutes, room temperature; read-out: BTK enzyme IC50
Protocol: The Btk kinase assay was performed using a ADP-Glo Btk kinase assay kit purchased from Promega (Madison, Wis.). The assay was conducted according to the protocols provided in the assay kit. In brief, the enzyme reaction was carried out in the kinase reaction buffer containing Btk (2 ng/μl), ATP (1.2 μM), poly GT peptide (0.3 μM), DTT (40 nM), MnCl2 (1.4 mM), and 1×kinase buffer (included in the kit) in the presence or absence of the tested articles at various concentrations in 384-well plate at room temperature (22±1° C.) for 60 minutes. The final reaction volume for each reaction was 10 μl. Then, 4 μl of ADP-Glo reagent (included in the kit) was added into the reaction and the plate was further incubated for another 40 minutes to terminate the reaction and deplete the remaining ATP. Finally, 10 μl of the kinase detection reagent was added into each reaction to simultaneously convert ADP to ATP and allow the newly synthesized ATP to be measured by a plate-reading luminometer (Victor X5 2030 multilabel reader, PerkinElmer). IC50 value was calculated using appropriate programs in GraphPad Prism by plotting the logarithm of the concentration versus percent inhibition as compared with a vehicle (DMSO) control.

Btk, sequence (Q06187 whole entry): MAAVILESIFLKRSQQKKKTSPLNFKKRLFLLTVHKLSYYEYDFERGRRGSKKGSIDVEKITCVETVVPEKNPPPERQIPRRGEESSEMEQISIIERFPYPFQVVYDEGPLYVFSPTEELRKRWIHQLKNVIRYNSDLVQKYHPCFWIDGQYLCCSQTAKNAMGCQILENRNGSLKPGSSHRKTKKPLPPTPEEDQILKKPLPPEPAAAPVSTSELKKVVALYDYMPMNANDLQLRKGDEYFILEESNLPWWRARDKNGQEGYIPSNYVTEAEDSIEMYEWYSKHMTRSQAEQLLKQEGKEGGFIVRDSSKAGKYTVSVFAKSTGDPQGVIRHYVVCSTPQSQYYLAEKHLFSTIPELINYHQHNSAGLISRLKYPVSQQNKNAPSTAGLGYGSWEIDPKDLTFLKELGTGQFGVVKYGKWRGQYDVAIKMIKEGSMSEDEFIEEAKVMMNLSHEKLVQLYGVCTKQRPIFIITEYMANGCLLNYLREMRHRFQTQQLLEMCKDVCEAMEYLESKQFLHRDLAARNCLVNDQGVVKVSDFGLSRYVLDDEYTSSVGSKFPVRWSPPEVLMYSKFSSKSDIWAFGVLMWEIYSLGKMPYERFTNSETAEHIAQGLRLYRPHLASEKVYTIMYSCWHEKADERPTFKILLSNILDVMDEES

IC50 [nM] | Compound
≤ 10 | CC(C)N(C)C/C=C/C(=O)N1CCC[C@@H](n2cc(-c3ccc(Oc4ccccc4)cc3)c3c(N)n[nH]c(=O)c32)C1 [Example 16, 4-amino-1-[(3R)-1-[(E)-4-[isopropyl(methyl)amino]but-2-enoyl]-3-piperidyl]-3-(4-phenoxyphenyl)-6H-pyrrolo[2,3-d]pyridazin-7-one]
≤ 10 | CNC/C=C/C(=O)N1CCC[C@@H](n2cc(-c3ccc(Oc4ccccc4)cc3)c3c(N)n[nH]c(=O)c32)C1 [Example 18, 4-amino-1-[(3R)-1-[(E)-4-(methylamino)but-2-enoyl]-3-piperidyl]-3-(4-phenoxyphenyl)-6H-pyrrolo[2,3-d]pyridazin-7-one]
10 to 1000 | CCC(=O)N1CCCC(n2cc(-c3ccc(Oc4ccccc4)cc3)c3c(N)n[nH]c(=O)c32)C1 (stereo not shown) [Example 19, 4-amino-3-(4-phenoxyphenyl)-1-(1-propionylpiperidin-3-yl)-1H-pyrrolo[2,3-d]pyridazin-7(6H)-one]
10 to 1000 | N#CN1CCC[C@@H](n2cc(-c3ccc(Oc4ccccc4)cc3)c3c(N)n[nH]c(=O)c32)C1 [Example 20, (R)-3-(4-amino-7-oxo-3-(4-phenoxyphenyl)-6,7-dihydro-1H-pyrrolo[2,3-d]pyridazin-1-yl)piperidine-1-carbonitrile]
1000 to 100000 | CC#CC(=O)N1CCCC(n2cc(-c3ccc(Oc4ccccc4)cc3)c3c(N)n[nH]c(=O)c32)C1 (stereo not shown) [Example 21, 4-amino-1-(1-(but-2-ynoyl)piperidin-3-yl)-3-(4-phenoxyphenyl)-1H-pyrrolo[2,3-d]pyridazin-7(6H)-one]
10 to 1000 | Nc1n[nH]c(=O)c2c1c(-c1ccc(Oc3ccccc3)cc1)cn2[C@@H]1CCCN(C(=O)C2CC2)C1 [Example 23, 4-amino-1-[(3R)-1-(cyclopropanecarbonyl)-3-piperidyl]-3-(4-phenoxyphenyl)-6H-pyrrolo[2,3-d]pyridazin-7-one]
10 to 1000 | N#CCC(=O)N1CCC[C@@H](n2cc(-c3ccc(Oc4ccccc4)cc3)c3c(N)n[nH]c(=O)c32)C1 [Example 24, 3-[(3R)-3-[4-amino-7-oxo-3-(4-phenoxyphenyl)-6H-pyrrolo[2,3-d]pyridazin-1-yl]-1-piperidyl]-3-oxo-propanenitrile]
≤ 10 | CN(C)C/C=C/C(=O)N1CCC[C@@H](n2cc(-c3ccc(Oc4ccccc4)cc3)c3c(N)n[nH]c(=O)c32)C1 [Example 26, 4-amino-1-[(3R)-1-[(E)-4-(dimethylamino)but-2-enoyl]-3-piperidyl]-3-(4-phenoxyphenyl)-6H-pyrrolo[2,3-d]pyridazin-7-one]
≤ 10 | CCN(CC)C/C=C/C(=O)N1CCC[C@@H](n2cc(-c3ccc(Oc4ccccc4)cc3)c3c(N)n[nH]c(=O)c32)C1 [Example 27, 4-amino-1-[(3R)-1-[(E)-4-(diethylamino)but-2-enoyl]-3-piperidyl]-3-(4-phenoxyphenyl)-6H-pyrrolo[2,3-d]pyridazin-7-one]
≤ 10 | Nc1n[nH]c(=O)c2c1c(-c1ccc(Oc3ccccc3)cc1)cn2[C@@H]1CCCN(C(=O)/C=C/CNC2CC2)C1 [Example 28, 4-amino-1-[(3R)-1-[(E)-4-(cyclopropylamino)but-2-enoyl]-3-piperidyl]-3-(4-phenoxyphenyl)-6H-pyrrolo[2,3-d]pyridazin-7-one]
10 to 1000 | CN(C/C=C/C(=O)N1CCC[C@@H](n2cc(-c3ccc(Oc4ccccc4)cc3)c3c(N)n[nH]c(=O)c32)C1)C1CC1 [Example 29, 4-amino-1-[(3R)-1-[(E)-4-(cyclopropyl(methyl)amino)but-2-enoyl]-3-piperidyl]-3-(4-phenoxyphenyl)-6H-pyrrolo[2,3-d]pyridazin-7-one]
10 to 1000 | CCN(C/C=C/C(=O)N1CCC[C@@H](n2cc(-c3ccc(Oc4ccccc4)cc3)c3c(N)n[nH]c(=O)c32)C1)C1CC1 [Example 30, 4-amino-1-[(3R)-1-[(E)-4-[cyclopropyl(ethyl)amino]but-2-enoyl]-3-piperidyl]-3-(4-phenoxyphenyl)-6H-pyrrolo[2,3-d]pyridazin-7-one]
≤ 10 | CN(C/C=C/C(=O)N1CCC[C@@H](n2cc(-c3ccc(Oc4ccccc4)cc3)c3c(N)n[nH]c(=O)c32)C1)C1CCC1 [Example 31, 4-amino-1-[(3R)-1-[(E)-4-[cyclobutyl(methyl)amino]but-2-enoyl]-3-piperidyl]-3-(4-phenoxyphenyl)-6H-pyrrolo[2,3-d]pyridazin-7-one]
≤ 10 | Nc1n[nH]c(=O)c2c1c(-c1ccc(Oc3ccccc3)cc1)cn2[C@@H]1CCCN(C(=O)/C=C/CN2CCC2)C1 [Example 33, 4-amino-1-[(3R)-1-[(E)-4-(azetidin-1-yl)but-2-enoyl]-3-piperidyl]-3-(4-phenoxyphenyl)-6H-pyrrolo[2,3-d]pyridazin-7-one]
≤ 10 | Nc1n[nH]c(=O)c2c1c(-c1ccc(Oc3ccccc3)cc1)cn2[C@@H]1CCCN(C(=O)/C=C/CN2CCCC2)C1 [Example 34, 4-amino-3-(4-phenoxyphenyl)-1-[(3R)-1-[(E)-4-pyrrolidin-1-ylbut-2-enoyl]-3-piperidyl]-6H-pyrrolo[2,3-d]pyridazin-7-one]
≤ 10 | Nc1n[nH]c(=O)c2c1c(-c1ccc(Oc3ccccc3)cc1)cn2[C@@H]1CCCN(C(=O)/C=C/CN2CCOCC2)C1 [Example 35, 4-amino-1-[(3R)-1-[(E)-4-morpholinobut-2-enoyl]-3-piperidyl]-3-(4-phenoxyphenyl)-6H-pyrrolo[2,3-d]pyridazin-7-one]
1000 to 100000 | COC/C=C/C(=O)N1CCC[C@@H](n2cc(-c3ccc(Oc4ccccc4)cc3)c3c(N)n[nH]c(=O)c32)C1 [Example 37, 4-amino-1-[(3R)-1-[(E)-4-methoxybut-2-enoyl]-3-piperidyl]-3-(4-phenoxyphenyl)-6H-pyrrolo[2,3-d]pyridazin-7-one]
≤ 10 | CN(C)C/C=C/C(=O)N1CCCC(n2cc(-c3ccc(Oc4ccccc4)cc3)c3c(N)n[nH]c(=O)c32)C1 (stereo not shown) [Example 38, 4-amino-1-[1-[(E)-4-(dimethylamino)but-2-enoyl]-3-piperidyl]-3-(4-phenoxyphenyl)-6H-pyrrolo[2,3-d]pyridazin-7-one]
≤ 10 | CN(C)C/C=C/C(=O)N1CC[C@@H](n2cc(-c3ccc(Oc4ccccc4)cc3)c3c(N)n[nH]c(=O)c32)C1 [Example 39, 4-amino-1-[(3R)-1-[(E)-4-(dimethylamino)but-2-enoyl]pyrrolidin-3-yl]-3-(4-phenoxyphenyl)-6H-pyrrolo[2,3-d]pyridazin-7-one]
10 to 1000 | CN(C)C/C=C/C(=O)N1CC(n2cc(-c3ccc(Oc4ccccc4)cc3)c3c(N)n[nH]c(=O)c32)C1 [Example 40, 4-amino-1-[1-[(E)-4-(dimethylamino)but-2-enoyl]azetidin-3-yl]-3-(4-phenoxyphenyl)-6H-pyrrolo[2,3-d]pyridazin-7-one]
10 to 1000 | CN(C)C/C=C/C(=O)N1CCC[C@H]1Cn1cc(-c2ccc(Oc3ccccc3)cc2)c2c(N)n[nH]c(=O)c21 [Example 41, 4-amino-1-[[(2S)-1-[(E)-4-(dimethylamino)but-2-enoyl]pyrrolidin-2-yl]methyl]-3-(4-phenoxyphenyl)-6H-pyrrolo[2,3-d]pyridazin-7-one]
1000 to 100000 | CN(C)C/C=C/C(=O)N1CCC[C@@H]1Cn1cc(-c2ccc(Oc3ccccc3)cc2)c2c(N)n[nH]c(=O)c21 [Example 42, 4-amino-1-[[(2R)-1-[(E)-4-(dimethylamino)but-2-enoyl]pyrrolidin-2-yl]methyl]-3-(4-phenoxyphenyl)-6H-pyrrolo[2,3-d]pyridazin-7-one]
10 to 1000 | CN(C)C/C=C/C(=O)N1CCC(Cn2cc(-c3ccc(Oc4ccccc4)cc3)c3c(N)n[nH]c(=O)c32)C1 (stereo not shown) [Example 43, 4-amino-1-[[1-[(E)-4-(dimethylamino)but-2-enoyl]pyrrolidin-3-yl]methyl]-3-(4-phenoxyphenyl)-6H-pyrrolo[2,3-d]pyridazin-7-one]
10 to 1000 | CN(C)C/C=C/C(=O)N1CCC(n2cc(-c3ccc(Oc4ccccc4)cc3)c3c(N)n[nH]c(=O)c32)CC1 [Example 44, 4-amino-1-[1-[(E)-4-(dimethylamino)but-2-enoyl]-4-piperidyl]-3-(4-phenoxyphenyl)-6H-pyrrolo[2,3-d]pyridazin-7-one]

Compound | IC50 [nM]
CN(C/C=C/C(=O)N1CCC[C@@H](n2cc(-c3ccc(Oc4ccccc4)cc3)c3c(N)n[nH]c(=O)c32)C1)C(=O)OC(C)(C)C [Example 17, tert-butyl N-[(E)-4-[(3R)-3-[4-amino-7-oxo-3-(4-phenoxyphenyl)-6H-pyrrolo[2,3-d]pyridazin-1-yl]-1-piperidyl]-4-oxo-but-2-enyl]-N-methyl-carbamate] | 10 to 1000
Nc1n[nH]c(=O)c2c1c(-c1ccc(Oc3ccccc3)cc1)cn2[C@@H]1CCCN(C(=O)CCl)C1 [Example 22, 4-amino-1-[(3R)-1-(2-chloroacetyl)-3-piperidyl]-3-(4-phenoxyphenyl)-6H-pyrrolo[2,3-d]pyridazin-7-one] | 10 to 1000
C/C=C/C(=O)N1CCC[C@@H](n2cc(-c3ccc(Oc4ccccc4)cc3)c3c(N)n[nH]c(=O)c32)C1 [Example 25, 4-amino-1-[(3R)-1-[(E)-but-2-enoyl]-3-piperidyl]-3-(4-phenoxyphenyl)-6H-pyrrolo[2,3-d]pyridazin-7-one] | 10 to 1000
CN(C)C/C=C/C(=O)N1C[C@H](n2cc(-c3ccc(Oc4ccccc4)cc3)c3c(N)n[nH]c(=O)c32)CC(F)(F)C1 [Example 49, 4-amino-1-[(3R)-1-[(E)-4-(dimethylamino)but-2-enoyl]-5,5-difluoro-3-piperidyl]-3-(4-phenoxyphenyl)-6H-pyrrolo[2,3-d]pyridazin-7-one] | 10 to 1000
